These antisense oligonucleotides have a phosphorothioate backbone; sugars and methylation of C are not fully specified.
Tests used:
GNA11 = conditions: ASO
TNFRSF1A = conditions: ASO
Also: test concentration or dose not given here.

In the case of GCCCGTGCCGAGCAGCAG, the remaining target (mRNA or protein) (fraction of control) (GNA11) is reported as at least 1.
With GGTCACCTTCTCCACGTC the remaining target (mRNA or protein) (fraction of control) (GNA11) was 0.73.
CTTGATGGCACTGACGTA was tested, and the remaining target (mRNA or protein) (fraction of control) (GNA11) was 0.22.
Sequence GACTCCTTCACCTCATCG has a remaining target (mRNA or protein) (fraction of control) (GNA11) of 0.85.
With CTTAGTAGTAGTTCCTTC the remaining target (mRNA or protein) (fraction of control) (TNFRSF1A) was 0.85.
With TCCCCTCCTCTCTGCTTT the remaining target (mRNA or protein) (fraction of control) (TNFRSF1A) was 0.95.
Work on CTCAGGGACGAACCAGGG yielded a remaining target (mRNA or protein) (fraction of control) (TNFRSF1A) of 0.97.
With CCAGGTCGAAAGGGTACT the remaining target (mRNA or protein) (fraction of control) (GNA11) was at least 1.
Work on CGTCCTGCTGGGTGGGCA yielded a remaining target (mRNA or protein) (fraction of control) (GNA11) of 0.6.
CTGGATGCCCGGGTCCTC was tested, and the remaining target (mRNA or protein) (fraction of control) (GNA11) was at least 1.
Work on GATGCTCGAAGGTGGTCA yielded a remaining target (mRNA or protein) (fraction of control) (GNA11) of 0.67.
CTCATCGCTCAGGCAACA was tested, and the remaining target (mRNA or protein) (fraction of control) (GNA11) was 0.39.
For GCAGGTCAGGCACGGTGG, the remaining target (mRNA or protein) (fraction of control) (TNFRSF1A) was 0.84.
TGAGGGTTGAGACTCGGG gave a remaining target (mRNA or protein) (fraction of control) (TNFRSF1A) of 0.98.
ATCCTCGCAAACCACCCA gave a remaining target (mRNA or protein) (fraction of control) (TNFRSF1A) of 0.71.
Work on TTAAACCAATGAAGAGGA yielded a remaining target (mRNA or protein) (fraction of control) (TNFRSF1A) of 0.72.
For TGTTCTGGTAGACGAGCT, the remaining target (mRNA or protein) (fraction of control) (GNA11) was at least 1.
GGAGGAGTTCTGGAACCA showed a remaining target (mRNA or protein) (fraction of control) (GNA11) of 0.36.
For CACCTGACCCATTTCCTT, the remaining target (mRNA or protein) (fraction of control) (TNFRSF1A) was 0.54.
Work on CTCGATCTCGGCGTTGAT yielded a remaining target (mRNA or protein) (fraction of control) (GNA11) of at least 1.
In the case of GCAGGTCCTTCTTGTTGA, the remaining target (mRNA or protein) (fraction of control) (GNA11) is reported as 0.94.
With GAAGCCTGGAGTGGGACT the remaining target (mRNA or protein) (fraction of control) (TNFRSF1A) was 0.52.
Work on TCGATTTCCCACAAACAA yielded a remaining target (mRNA or protein) (fraction of control) (TNFRSF1A) of 0.99.
GGTACTGGTTCTTCCTGC showed a remaining target (mRNA or protein) (fraction of control) (TNFRSF1A) of 0.86.
With ATCTGCTTGATGAACGTG the remaining target (mRNA or protein) (fraction of control) (GNA11) was at least 1.
CGCAAAGTTGGGACAGTC gave a remaining target (mRNA or protein) (fraction of control) (TNFRSF1A) of 0.7.
AGGGCTTTGCTCTCCTCC was tested, and the remaining target (mRNA or protein) (fraction of control) (GNA11) was 0.23.
Sequence CTTGTCCTCCTCCGAGTA has a remaining target (mRNA or protein) (fraction of control) (GNA11) of 0.21.
Work on TATATTCCCACCAACAGC yielded a remaining target (mRNA or protein) (fraction of control) (TNFRSF1A) of 0.75.
ACAAAACAAAACAAAACA showed a remaining target (mRNA or protein) (fraction of control) (TNFRSF1A) of 0.73.
Sequence GTTAGCACCAAGTAGGCG has a remaining target (mRNA or protein) (fraction of control) (TNFRSF1A) of 0.89.
TACTTGGCAGAGTCGGAG gave a remaining target (mRNA or protein) (fraction of control) (GNA11) of 0.66.
In the case of TGCTCGTACTTGTAGAGG, the remaining target (mRNA or protein) (fraction of control) (GNA11) is reported as 0.93.
Work on CCATTGAGGCAGAGGCTG yielded a remaining target (mRNA or protein) (fraction of control) (TNFRSF1A) of 0.52.
CACGTGAAGTGTGAGTAG showed a remaining target (mRNA or protein) (fraction of control) (GNA11) of at least 1.
For ACCAGATTGTACTCCTTC, the remaining target (mRNA or protein) (fraction of control) (GNA11) was at least 1.
CTTACAGTTACTACAGGA showed a remaining target (mRNA or protein) (fraction of control) (TNFRSF1A) of 0.79.
AGTAGGTTCCTTTGTGGC was tested, and the remaining target (mRNA or protein) (fraction of control) (TNFRSF1A) was 0.54.
GCTGGTACTCGCGCCTGC was tested, and the remaining target (mRNA or protein) (fraction of control) (GNA11) was 0.59.
ATCTTGTCCTCCAGCAGG was tested, and the remaining target (mRNA or protein) (fraction of control) (GNA11) was 0.96.
Work on GTGCCACCTCTCTGCGGG yielded a remaining target (mRNA or protein) (fraction of control) (TNFRSF1A) of at least 1.
AAGTAGTCCACCAGGTGC showed a remaining target (mRNA or protein) (fraction of control) (GNA11) of at least 1.
AAAGGCTCAGGGACGAAC showed a remaining target (mRNA or protein) (fraction of control) (TNFRSF1A) of 0.58.
In the case of CAGTCCGTATCCTGCCCC, the remaining target (mRNA or protein) (fraction of control) (TNFRSF1A) is reported as 0.74.
AGCTGAGGCAGTGTCTGA was tested, and the remaining target (mRNA or protein) (fraction of control) (TNFRSF1A) was 0.73.
ACTGACGTACTGATGCTC showed a remaining target (mRNA or protein) (fraction of control) (GNA11) of 0.64.
ACGGCCGCGAACACGAAG showed a remaining target (mRNA or protein) (fraction of control) (GNA11) of 0.94.
Work on AGACTCGGGCATAGAGAT yielded a remaining target (mRNA or protein) (fraction of control) (TNFRSF1A) of at least 1.
With ATCCGGTTCTCGTTGTCC the remaining target (mRNA or protein) (fraction of control) (GNA11) was 0.78.
AGGCAGTGTCTGAGGTGG gave a remaining target (mRNA or protein) (fraction of control) (TNFRSF1A) of at least 1.
Work on TGCCTTAGGACAGTTCAG yielded a remaining target (mRNA or protein) (fraction of control) (TNFRSF1A) of 0.8.
Work on ATCCGGAAGATGATGTTC yielded a remaining target (mRNA or protein) (fraction of control) (GNA11) of at least 1.
For TAACATTCTCAATCTGGG, the remaining target (mRNA or protein) (fraction of control) (TNFRSF1A) was at least 1.
AGGCCCCATTGTTCCGTG showed a remaining target (mRNA or protein) (fraction of control) (TNFRSF1A) of at least 1.
ATTATTTTGAGGGTGGAT showed a remaining target (mRNA or protein) (fraction of control) (TNFRSF1A) of at least 1.
Sequence GTCAGGCACGGTGGAGAG has a remaining target (mRNA or protein) (fraction of control) (TNFRSF1A) of at least 1.
CGGATCATGGCCTGCATG gave a remaining target (mRNA or protein) (fraction of control) (GNA11) of 0.99.
In the case of CAAAGACCAAAGAAAATG, the remaining target (mRNA or protein) (fraction of control) (TNFRSF1A) is reported as 0.71.
CGAGAAACATGATGGATG gave a remaining target (mRNA or protein) (fraction of control) (GNA11) of at least 1.
For CTGTCCTCCCACTTCTGA, the remaining target (mRNA or protein) (fraction of control) (TNFRSF1A) was 0.84.
TCCAGGCTTTTCTTACAG gave a remaining target (mRNA or protein) (fraction of control) (TNFRSF1A) of at least 1.
Work on ATAGCGTCCCTCATCCTC yielded a remaining target (mRNA or protein) (fraction of control) (TNFRSF1A) of 0.66.
With AGGGCAGTGTGGCAGCGG the remaining target (mRNA or protein) (fraction of control) (TNFRSF1A) was 0.47.
With AGCGGCAGCAGCAGGTCA the remaining target (mRNA or protein) (fraction of control) (TNFRSF1A) was at least 1.
Work on GCTTGTCCAGGCAGAGGG yielded a remaining target (mRNA or protein) (fraction of control) (TNFRSF1A) of 0.82.
GCTCCTGCTTGCCCCTGC was tested, and the remaining target (mRNA or protein) (fraction of control) (TNFRSF1A) was 0.57.
AGCCGCTCTCACACTCCC gave a remaining target (mRNA or protein) (fraction of control) (TNFRSF1A) of 0.64.
With GCTTTTCTTACAGTTACT the remaining target (mRNA or protein) (fraction of control) (TNFRSF1A) was 0.9.
Work on GTCCAGGCAGAGGGCACA yielded a remaining target (mRNA or protein) (fraction of control) (TNFRSF1A) of 0.79.
In the case of GGTGACAGTTGAGGGTTG, the remaining target (mRNA or protein) (fraction of control) (TNFRSF1A) is reported as 0.92.
GCAGCAGCAGGTCAGGCA gave a remaining target (mRNA or protein) (fraction of control) (TNFRSF1A) of 0.63.

Reference: the OligoGym collection
